# Results published in patent publication US7858640B2, “Quinolines and their therapeutic use” (Pulmagen Therapeutics (Asthma) Limited, priority 2005, dated 2010).
# pKi: −log10 of the molar value.
# Molecular target: T1, CRTH2 receptor (Homo sapiens, UniProt Q9Y5Y4)
# T1 sequence (Q9Y5Y4 1-395): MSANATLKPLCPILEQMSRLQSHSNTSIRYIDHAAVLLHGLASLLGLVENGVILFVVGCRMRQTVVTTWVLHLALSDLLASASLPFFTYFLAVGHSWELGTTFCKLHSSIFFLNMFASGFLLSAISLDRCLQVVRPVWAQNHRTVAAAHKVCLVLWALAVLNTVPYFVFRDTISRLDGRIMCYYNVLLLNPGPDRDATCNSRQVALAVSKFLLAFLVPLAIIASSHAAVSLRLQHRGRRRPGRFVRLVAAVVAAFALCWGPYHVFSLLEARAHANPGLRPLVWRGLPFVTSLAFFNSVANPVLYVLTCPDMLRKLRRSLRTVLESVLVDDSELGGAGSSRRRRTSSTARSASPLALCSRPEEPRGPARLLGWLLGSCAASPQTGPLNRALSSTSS
# Assay: Radioligand binding assay ([3H]-PGD2 displacement, SPA)
# Parameters: expressed in transfected cells; host or cells: HEK cell membranes
# Conditions: HEK cell membranes expressing the CRTH2 receptor, 1 nM [3H]-PGD2; Ki from IC50 by Cheng-Prusoff
# Experimental: Radioligand Binding Assay
# The receptor binding assay is performed in a final volume of 200 μL binding buffer [10 mM BES (pH 7.4), 1 mM EDTA, 10 mM manganese chloride, 0.01% BSA] and 1 nM [^3H]-PGD2 (Amersham Biosciences UK Ltd). Ligands are added in assay buffer containing a constant amount of DMSO (1% by volume). Total binding is determined using 1% by volume of DMSO in assay buffer and non-specific binding is determined using 10 μM of unlabeled PGD2 (Sigma). Human embryonic kidney (HEK) cell membranes (3.5 μg) expressing the CRTH2 receptor are incubated with 1.5 mg wheatgerm agglutinin SPA beads and 1 nM [^3H]-PGD2 (Amersham Biosciences UK Ltd) and the mixture incubated for 3 hours at room temperature. Bound [^3H]-PGD2 is detected using a Microbeta TRILUX liquid scintillation counter (Perkin Elmer). Compound IC50 value is determined using a 6-point dose response curve in duplicate with a semi-log compound dilution series. IC50 calculations are performed using Excel and XLfit (Microsoft), and this value is used to determine a Ki value for the test compound using the Cheng-Prusoff equation.
row,Compound,pKi
1,"Cc1c(Cc2ccc(F)cc2)c(OC(F)F)nc2c(F)ccc(OCC(=O)O)c12 [Example 52, [2-difluoromethoxy-8-fluoro-3-(4-fluorobenzyl)-4-methylquinolin-5-yloxy]acetic Acid]",> 7.00
2,"CCc1nc2c(Cl)ccc(OCC(=O)O)c2c(C)c1Cc1ccc(Cl)cc1 [Example 17, [8-chloro-3-(4-chlorobenzyl)-2-ethyl-4-methylquinolin-5-yloxy]acetic Acid]",> 7.00
3,"Cc1nc2c(Cl)ccc(CC(=O)O)c2c(C)c1Oc1ccc(Cl)cc1 [Example 15, [8-chloro-3-(4-chlorophenoxy)-2,4-dimethylquinolin-5-yl]acetic Acid]",> 7.00
4,"Cc1c(Cc2ccc(S(C)(=O)=O)cc2)c(C#N)nc2c(Cl)ccc(OCC(=O)O)c12 [Example 44, [8-chloro-2-cyano-3-(4-methanesulfonylbenzyl)-4-methylquinolin-5-yloxy]acetic Acid]",> 7.00
5,"Cc1nc2c(Cl)ccc(OCC(=O)O)c2c(C)c1Oc1ccc(Cl)cc1 [Example 7, [8-chloro-3-(4-chlorophenoxy)-2,4-dimethylquinolin-5-yloxy]acetic Acid]",> 7.00
6,"CCc1nc2c(Cl)ccc(OCC(=O)O)c2c(OC(F)F)c1Cc1ccc(F)cc1 [Example 37, [8-chloro-4-difluoromethoxy-2-ethyl-3-(4-fluorobenzyl)quinolin-5-yloxy]acetic Acid]",> 7.00
7,"CCc1nc2c(F)ccc(OCC(=O)O)c2c(OC(F)F)c1Cc1ccc(S(C)(=O)=O)cc1Cl [Example 47, [3-(2-chloro-4-methanesulfonylbenzyl)-4-difluoromethoxy-2-ethyl-8-fluoroquinolin-5-yloxy]acetic acid]",> 7.00
8,"Cc1c(Cc2ccc(Cl)cc2Cl)c(OC(F)F)nc2c(F)ccc(O[C@@H](C)C(=O)O)c12 [Example 68, (S)-2-[3-(2,4-dichlorobenzyl)-2-difluoromethoxy-8-fluoro-4-methylquinolin-5-yloxy]propionic Acid]",> 7.00
9,"Cc1nc2c(Cl)ccc(OCC(=O)O)c2c(C)c1Cc1ccc(Cl)cc1 [Example 2, [8-chloro-3-(4-chlorobenzyl)-2,4-dimethylquinolin-5-yloxy]acetic Acid]",> 7.00
10,"Cc1nc2c(Cl)ccc(OCC(=O)O)c2c(C)c1S(=O)(=O)c1ccc(Cl)cc1 [Example 21, [8-chloro-3-(4-chlorobenzenesulfonyl)-2,4-dimethylquinolin-5-yloxy]acetic Acid]",> 7.00
11,"Cc1c(Cc2ccc(Cl)cc2Cl)c(OC(F)F)nc2c(F)ccc(OC(C)C(=O)O)c12 (centres unmarked) [Example 67, 2-[3-(2,4-dichlorobenzyl)-2-difluoromethoxy-8-fluoro-4-methylquinolin-5-yloxy]propionic Acid]",> 7.00
12,"CCc1nc2c(F)ccc(OCC(=O)O)c2c(OC(F)F)c1Cc1ccc(S(=O)(=O)CC)cc1 [Example 60, [4-difluoromethoxy-3-(4-ethanesulfonylbenzyl)-2-ethyl-8-fluoroquinolin-5-yloxy]acetic Acid]",> 7.00
13,"CCc1nc2c(Cl)ccc(OCC(=O)O)c2c(OC(F)F)c1Cc1ccc(C(=O)N2CCCC2)cc1 [Example 71, {8-chloro-4-difluoromethoxy-2-ethyl-3-[4-(pyrrolidine-1-carbonyl)benzyl]quinolin-5-yloxy}acetic Acid]",> 7.00

# The next lines start with the values.
row,pKi,Compound
1,> 6.00,"Cc1nc2c(Cl)ccc(OCC(=O)O)c2c(OC(C)C)c1Cc1ccc(F)cc1 [Example 32, [8-chloro-3-(4-fluorobenzyl)-4-isopropoxy-2-methylquinolin-5-yloxy]acetic Acid]"
2,> 6.00,"Cc1nc2c(Cl)ccc(CC(=O)O)c2c(OC(F)F)c1Cc1ccc(Cl)cc1 [Example 25, [8-chloro-3-(4-chlorobenzyl)-4-difluoromethoxy-2-methylquinolin-5-yl]acetic acid]"
3,> 7.00,"Cc1c(Cc2ccc(Cl)cc2Cl)c(OC(F)F)nc2c(F)ccc(O[C@H](C)C(=O)O)c12 [Example 70, (R)-2-[3-(2,4-dichlorobenzyl)-2-difluoromethoxy-8-fluoro-4-methylquinolin-5-yloxy]propionic Acid]"
4,> 7.00,"CCc1c(Cc2ccc(Cl)cc2)c(C)nc2c(Cl)ccc(OCC(=O)O)c12 [Example 16, [8-chloro-3-(4-chlorobenzyl)-4-ethyl-2-methylquinolin-5-yloxy]acetic acid]"
5,> 6.00,"Cc1cc(CC(=O)O)c2c(C)c(Cc3ccc(Cl)cc3)c(C)nc2c1 [Example 5, [3-(4-chlorobenzyl)-2,4,7-trimethylquinolin-5-yl]acetic Acid]"
6,> 7.00,"Cc1nc2c(Cl)ccc(OCC(=O)O)c2c(OC(F)F)c1Cc1ccc(Cl)cc1 [Example 9, [8-chloro-3-(4-chlorobenzyl)-4-difluoromethoxy-2-methylquinolin-5-yloxy]acetic Acid]"
7,> 7.00,"CCc1nc2c(F)ccc(OCC(=O)O)c2c(OC(F)F)c1Cc1ccc(S(=O)(=O)N2CCOCC2)cc1 [Example 64, {4-difluoromethoxy-2-ethyl-8-fluoro-3-[4-(morpholine-4-sulfonyl)benzyl]quinolin-5-yloxy}acetic acid]"
8,> 7.00,"CCc1nc2c(F)ccc(OCC(=O)O)c2c(OC(F)F)c1Cc1ccc(Cl)cc1Cl [Example 54, [3-(2,4-dichlorobenzyl)-4-difluoromethoxy-2-ethyl-8-fluoroquinolin-5-yloxy]acetic acid]"
9,> 7.00,"Cc1c(Cc2ccc(Cl)cc2F)c(OC(F)F)nc2c(F)ccc(OCC(=O)O)c12 [Example 56, [3-(4-chloro-2-fluorobenzyl)-2-difluoromethoxy-8-fluoro-4-methylquinolin-5-yloxy]acetic Acid]"
10,> 7.00,"CCc1nc2c(Cl)ccc(OCC(=O)O)c2c(OC(F)F)c1Cc1ccc(S(C)(=O)=O)cc1 [Example 29, [8-chloro-4-difluoromethoxy-2-ethyl-3-(4-methanesulfonylbenzyl)-quinolin-5-yloxy]acetic acid]"
11,> 7.00,"CCc1nc2c(F)ccc(OCC(=O)O)c2c(OC(F)F)c1Cc1ccc(Cl)cc1 [Example 49, [3-(4-chlorobenzyl)-4-difluoromethoxy-2-ethyl-8-fluoroquinolin-5-yloxy]acetic Acid]"
12,> 7.00,"CCc1nc2c(F)ccc(OCC(=O)O)c2c(OC(F)F)c1Cc1ccc(F)cc1 [Example 50, [4-difluoromethoxy-2-ethyl-8-fluoro-3-(4-fluorobenzyl)quinolin-5-yloxy]acetic Acid]"
13,> 7.00,"Cc1c(Cc2ccc(Cl)cc2)c(OC(F)F)nc2c(Cl)ccc(OCC(=O)O)c12 [Example 57, [8-chloro-3-(4-chlorobenzyl)-2-difluoromethoxy-4-methylquinolin-5-yloxy]acetic Acid]"
14,> 7.00,"Cc1nc2c(Cl)ccc(OC(C)C(=O)O)c2c(C)c1Cc1ccc(Cl)cc1 (centres unmarked) [Example 33, 2-[8-chloro-3-(4-chlorobenzyl)-2,4-dimethylquinolin-5-yloxy]propionic Acid]"
15,> 6.00,"Cc1cc(OCC(=O)O)c2c(C)c(Cc3ccc(Cl)cc3)c(C)nc2c1 [Example 4, [3-(4-chlorobenzyl)-2,4,7-trimethylquinolin-5-yloxy]acetic Acid]"
16,> 7.00,"Cc1nc2c(Cl)ccc(OCC(=O)O)c2c(OC(F)F)c1Cc1ccc(S(C)(=O)=O)cc1Cl [Example 35, [8-chloro-3-(2-chloro-4-methanesulfonylbenzyl)-4-difluoro-methoxy-2-methylquinolin-5-yloxy]acetic Acid]"
